Literature values, collected in patent US20070225340A1, “Phenyl Compounds And Their Use In The Treatment Of Conditions Mediated By The Action Of Pge2 At The Ep1 Receptor” (Glaxo Group Limited, priority 2004, published 2007).

Tests used:
EP1 receptor [1] = molecular target: T1, EP1 receptor (Rattus norvegicus, UniProt P70597); set-up: host or cells: living rat (in vivo pain model); conditions: chronic constriction injury, Anesthesia and Analgesia 2001, 93, 1012-7
T1 sequence (P70597 1-405): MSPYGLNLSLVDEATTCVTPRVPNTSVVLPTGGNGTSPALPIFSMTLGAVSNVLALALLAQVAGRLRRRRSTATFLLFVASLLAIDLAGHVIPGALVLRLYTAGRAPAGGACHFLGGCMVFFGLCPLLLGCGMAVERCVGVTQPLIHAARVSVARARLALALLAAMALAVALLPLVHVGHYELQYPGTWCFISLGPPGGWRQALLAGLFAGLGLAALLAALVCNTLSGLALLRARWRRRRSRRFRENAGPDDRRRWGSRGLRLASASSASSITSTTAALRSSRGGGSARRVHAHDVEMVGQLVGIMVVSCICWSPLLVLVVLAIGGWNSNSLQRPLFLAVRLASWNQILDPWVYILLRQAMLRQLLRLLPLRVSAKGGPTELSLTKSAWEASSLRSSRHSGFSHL

EP1 receptor [2] = molecular target: T1, EP1 receptor; set-up: host or cells: living rodent (in vivo pain model); conditions: rodent, post-operative pain; Anesthesia and Analgesia 2001, 92, 233-238

Cc1cc(Cl)ccc1S(=O)(=O)NC[C@H]1C2CCC(CC2)[C@@H]1/C=C\CCCC(=O)O [ONO-8711]
effect on hyperalgesia and allodynia (EP1 receptor [1]): reduces hyperalgesia and allodynia
effect on mechanical hyperalgesia (EP1 receptor [2]): inhibits mechanical hyperalgesia
